# Data published in patent US10906864B2, “Nitroalkene non steroidal anti-inflammatory drugs (NA-NSAIDS) and methods of treating inflammation related conditions” (Institut Pasteur de Montevideo, priority 2017, dated 2021).
# Key:
# [1] = tested on: NF-κB and inflammasome function in macrophages (THP-1 cells); assay: IL-1β secretion by ELISA in PMA-differentiated THP-1 macrophages stimulated with LPS and ATP; assay type: cell-based
# Procedure: In order to compare benzoic acid (BA) and nitroalkene benzoic acid (BANA) over NF-κB and inflammasome function in macrophages, THP-1 cells were differentiated into macrophages with PMA (200 nM, 48 h). Cells were then stimulated with LPS (250 ng/mL) and with ATP (5 mM, 45 minutes). Together with LPS (1st signal, FIG. 6) or ATP (2nd signal, FIG. 7), cells were treated with Benzoic acid (30 μM) or BANA (30 μM). Supernatants were collected and IL-1β secretion was measured by ELISA. […] Thus, BANA inhibits both the generation of the inflammasome, and inhibits the inflammasome itself. Further exemplary studies were performed with Flufenamate (FluFE) and nitroalkene flufenamate (FluFENA). In order to study the effect of Flufenamate (FluFE) and FluFENA over NF-κB and inflammasome function in macrophages, THP-1 cells were differentiated into macrophages with PMA (200 nM, 48 h). Cells were stimulated with LPS (250 ng/mL) and then with ATP (5 mM, 45 minutes). […] Cells were stimulated with LPS (250 ng/mL) and then with ATP (5 mM, 45 minutes). Together with LPS (1st signal, FIG. 10) or ATP (2nd signal, FIG. 11), cells were treated with Ibuprofen (20 μM) or IBUNA ([…] were collected and IL-1β secretion was measured by ELISA.
# [2] = tested on: in vivo model of peritonitis; assay: In vivo model of peritonitis (LPS-induced inflammatory response), IL-1β by ELISA; design: species or system Mice
# Procedure: Mice were treated with BANA, Benzoic Acid (50 mg/kg, IP) or the vehicle (100 mM Phosphate buffer 10% DMSO) for 1 hour. Then were injected with LPS (10 mg/kg, IP) or PBS for 2 hours. Mice were collected for peritoneal wash and blood samples were extracted. The peritoneal wash and plasma were stored to measure IL-1β by ELISA. The values are show as mean±SD from three mice per condition and we have used the statistic test one-way ANOVA with Bonferroni.
# [3] = mice, 50 mg/kg IP 1 hour before LPS 10 mg/kg IP for 2 hours, as opposed to BA
compound,measurement,setting,value
"O=C(O)c1ccc(/C=C/[N+](=O)[O-])cc1 [BANA, (E)-4-(2-nitrovinyl)benzoic acid]","IL-1β secretion, treatment together with LPS (1st signal)","[1]; 30 μM, LPS 250 ng/mL then ATP 5 mM 45 minutes, FIG. 6",inhibition of IL-1β secretion in cells stimulated by LPS
same,"IL-1β secretion, treatment together with ATP (2nd signal)","[1]; 30 μM, LPS 250 ng/mL then ATP 5 mM 45 minutes, FIG. 7",inhibition of IL-1β secretion in cells stimulated by ATP
same,IL-1β release in LPS-induced inflammatory response (FIG. 12 legend),[2]; in vivo,in vivo inhibition of IL-1β release
same,level of IL-1β in blood plasma,[2]; [3],marked decrease
same,level of IL-1β in peritoneal wash,[2]; [3],marked decrease
"CC(C)Cc1ccc(C(C)C(=O)O)cc1/C=C/[N+](=O)[O-] (stereo not shown) [IBUNA, (E)-2-(4-isobutyl-3-(2-nitrovinyl)phenyl)propanoic acid]","IL-1β secretion, treatment together with LPS (1st signal) or ATP (2nd signal), versus Ibuprofen","[1]; Ibuprofen (20 μM) or IBUNA (20), FIG. 10 and FIG. 11",unexpected superiority
"O=C(O)c1cc(/C=C/[N+](=O)[O-])ccc1Nc1cccc(C(F)(F)F)c1 [FluFENA, (E)-5-(2-nitrovinyl)-2-((3-(trifluoromethyl)phenyl)amino)benzoic acid]","IL-1β secretion, treatment together with LPS (1st signal) or ATP (2nd signal), versus Flufenamate (FluFE)","[1]; FluFE (5 μM) or FluFENA (5), FIG. 8 and FIG. 9",unexpected advantage
